Results published in US8889677B2, “Substituted triazoles useful as mGlu5 receptor modulators” (Boehringer Ingellheim International GmbH, priority 2012, dated 2014).

What follows are molecules tested against T1, human recombinant mGluR5 (Homo sapiens, UniProt P41594) (assay: positive modulation of mGluR5, calcium based FLIPR assay in HEK 293 cells). Details: HEK 293 cell line expressing human recombinant mGluR5; EC50 of the modulation of the glutamate response (glutamate approx. 5% basal stimulation); peak height of Ca release fluorescence signal.
T1 construct: expressed in transfected cells; host or cells: HEK 293 cell line cultured with tetracycline, hygromycin and geneticin; tetracycline removed 3-7 days before the assay
T1 sequence (P41594 21-1212): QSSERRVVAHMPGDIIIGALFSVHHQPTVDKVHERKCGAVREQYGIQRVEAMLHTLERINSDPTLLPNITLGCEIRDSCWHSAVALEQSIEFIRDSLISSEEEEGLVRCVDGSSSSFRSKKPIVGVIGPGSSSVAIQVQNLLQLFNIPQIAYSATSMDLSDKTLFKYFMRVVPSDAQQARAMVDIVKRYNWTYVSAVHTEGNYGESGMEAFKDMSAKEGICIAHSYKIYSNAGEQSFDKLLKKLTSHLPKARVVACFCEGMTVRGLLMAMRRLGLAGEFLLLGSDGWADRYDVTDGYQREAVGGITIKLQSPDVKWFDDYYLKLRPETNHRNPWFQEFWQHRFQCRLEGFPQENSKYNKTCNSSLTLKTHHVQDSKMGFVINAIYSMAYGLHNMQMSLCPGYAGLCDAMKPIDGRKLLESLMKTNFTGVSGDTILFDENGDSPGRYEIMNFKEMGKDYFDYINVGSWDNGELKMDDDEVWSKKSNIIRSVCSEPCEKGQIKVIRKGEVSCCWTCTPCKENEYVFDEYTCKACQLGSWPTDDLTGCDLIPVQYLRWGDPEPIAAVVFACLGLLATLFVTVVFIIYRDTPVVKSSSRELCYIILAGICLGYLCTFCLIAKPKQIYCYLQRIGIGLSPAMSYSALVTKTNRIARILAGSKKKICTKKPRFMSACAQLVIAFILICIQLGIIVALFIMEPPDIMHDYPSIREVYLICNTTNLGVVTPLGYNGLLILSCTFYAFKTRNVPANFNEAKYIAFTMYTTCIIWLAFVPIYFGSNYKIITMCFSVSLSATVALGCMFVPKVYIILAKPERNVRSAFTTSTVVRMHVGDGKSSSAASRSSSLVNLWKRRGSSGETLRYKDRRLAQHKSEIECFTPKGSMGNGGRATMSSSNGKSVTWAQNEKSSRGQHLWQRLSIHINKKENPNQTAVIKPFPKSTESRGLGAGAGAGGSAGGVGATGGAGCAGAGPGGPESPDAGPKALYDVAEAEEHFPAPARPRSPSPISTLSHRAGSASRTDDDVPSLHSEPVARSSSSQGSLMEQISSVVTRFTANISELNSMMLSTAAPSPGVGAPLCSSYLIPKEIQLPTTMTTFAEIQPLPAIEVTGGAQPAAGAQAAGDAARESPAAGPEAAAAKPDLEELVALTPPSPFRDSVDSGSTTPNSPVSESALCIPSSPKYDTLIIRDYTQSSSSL
Experimental: The positive modulation of mGluR5 is measured in a HEK 293 cell line expressing human recombinant mGluR5 and is detected with calcium based FLIPR assay. The cells are cultured with DMEM supplemented with 10% FCS, 2 μg/mL tetracycline, 100 μg/mL hygromycin and 500 μg/mL gneticin. The cell culture media is exchanged for tetracycline-free cell culture media 3-7 days before the assay. One day before the assay the cell culture medium is exchanged to DMEM without glutamine and phenol red and supplemented with 10% FCS, 100 μg/mL hygromycin and 500 μg/mL geneticin. On the assay day, the medium of the subconfluent cultures is removed and the cells are detached by addition of 2.5 ml EDTA (0.02%) per 175 cm2 culture flask for 1 minute. The cells are resuspend in Ringer solution (140 mM NaCl, 5 mM KCl, 2.5 mM CaCl2, 1.5 mM MgCl2, 5 mM Glucose, 10 mM Hepes; adjusted to pH 7.4 with NaOH), pooled and Ringer solution added to adjust the volume to 50 mL. The cell suspension is centrifuged for […] at 1500 U/min (425 g). The supernatant is removed and the cells washed a second time with 50 ml fresh Ringer solution and centrifuged again as before. The supernatant is again removed and the pellet resuspended in Ringer solution to 1,000,000 cells/ml (1×10^6 cells/mL). The cells are plated onto BD BioCoat Poly-D-Lysine 384 well plates (20.000 cells/well; 20 μl/well). The lid covered plates are then incubated until use at 37° C./10% CO2. For dye loading, 20 μl of Calcium-4 assay kit solution (prepared according to the manufacturer's description in Ringer solution) are added to the cells and the plates are incubated for 80 min 37° C. and then 10 min at room temperature.
Controls, Compound Dilution and Assay Execution:
Each assay plate contained wells with “high” and “low” controls:
Low controls 1% DMSO/ringer solution+basal glutamate activation (defined as 100% CTL).
High controls 10 μM CDPPB+basal glutamate activation (defined as 200% CTL).
Test compounds are dissolved and diluted in DMSO to 100-fold the desired concentrations. In a second step, the compounds are diluted in Ringer solution such that the compounds are 4-fold more concentrated than the desired final assay concentration. The final DMSO concentration was 1%.
20 μl of each compound solution are then transferred to the assay plate and the Ca2+ kinetic is measured to determine any intrinsic compound activity. After 5 min incubation in the FLIPR device, the second stimulation with 20 μl of glutamate in Ringer solution (glutamate concentration adjusted to approximately 5% basal stimulation of the maximal possible glutamate effect) is added and the kinetic Ca2+ response of the wells was measured for the modulation effect.
The peak height of the Ca release related fluorescence signal (9-66) is used for the EC50. The EC50 of the modulation is calculated over a nonlinear regression with GraphPad Prism (Table 1).

SMILES | EC50 [nM]
COc1ccc(-c2nc(-c3ccc(F)cc3)nn2CC(=O)N2CCN(c3ccccn3)CC2)cc1 [Example 07.10.41.] | 182
COc1ccnc(N2CCN(C(=O)Cn3nc(-c4ccc(F)c(C)c4)nc3-c3ccccc3)CC2)c1 [Example 07.04.063.] | 61
Cc1ccnc(N2CCN(C(=O)Cn3nc(-c4ccc(F)cc4)nc3-c3ccc(F)cn3)CC2)c1 [Example 07.04.143.] | 783
COc1ccc(-c2nc(-c3ccccc3)n(CC(=O)N3CCN(c4cc(OC)ncn4)CC3)n2)cc1 [Example 07.04.152.] | 174
Cc1cc(-c2nc(-c3ccccc3)nn2CC(=O)N2CCN(c3ncccn3)CC2)ccc1Br [Example 07.01.07.] | 66
N#Cc1ccnc(N2CCN(C(=O)Cn3nc(-c4ccc(F)cc4)nc3-c3ccc(F)cc3)CC2)n1 [Example 07.03.08.] | 124
COc1ccc(-c2nc(-c3ccccc3)n(CC(=O)N3CCN(c4ncccn4)CC3)n2)cc1C [Example 07.10.17.] | 43
Cc1cc(-c2nc(C3CCCC3)n(CC(=O)N3CCN(c4ccccn4)CC3)n2)ccc1F [Example 07.04.113.] | 263
Cc1cc(-c2nc(C3CCCCC3C)n(CC(=O)N3CCN(c4ncccn4)CC3)n2)ccc1F (stereo not drawn) [Example 07.04.135.] | 392
O=C(Cn1nc(-c2ccc(F)cc2)nc1-c1ccc(F)cc1)N1CCN(c2cc(OC[C@@H]3CCCO3)ncn2)CC1 [Example 07.09.23.] | 62
COc1ccc(-c2nc(-c3ccc(F)cc3)n(CC(=O)N3CCN(c4ncccn4)CC3)n2)cc1 [Example 07.04.033.] | 37
COc1ccnc(N2CCN(C(=O)Cn3nc(-c4ccc(F)c(C)c4)nc3CC(C)C)CC2)c1 [Example 07.04.107.] | 500
O=C(Cn1nc(-c2ccc(F)cc2)nc1C#CC1CCCCC1)N1CCN(c2ccccn2)CC1 [Example 07.11.02.] | 416
COc1ccc(-c2nc(-c3ccc(OC)cc3)n(CC(=O)N3CCN(c4ccc(C(N)=O)cn4)CC3)n2)cc1 [Example 07.02.17.] | 644
O=C(Cn1nc(-c2ccc(F)cc2)nc1-c1ccc(F)cc1)N1CCN(c2ccncn2)CC1 [Example 07.04.003.] | 259
COc1ccc(-c2nc(C3CCCCC3)n(CC(=O)N3CCN(c4ncccn4)CC3)n2)cc1 [Example 07.02.24.] | 229
CNc1cc(N2CCN(C(=O)Cn3nc(-c4ccc(F)cc4)nc3-c3ccc(F)cc3)CC2)ncn1 [Example 07.08.24.] | 191
COCCNc1cc(N2CCN(C(=O)Cn3nc(-c4ccc(F)cc4)nc3-c3ccc(F)cc3)CC2)ncn1 [Example 07.08.21.] | 201
COc1ccc(-c2nc(-c3ccccc3)n(CC(=O)N3CCN(c4cc(C)ccn4)CC3)n2)cc1 [Example 07.04.160.] | 80
COc1ccc(-c2nc(C3CCCCC3)n(CC(=O)N3CCN(c4ncccn4)CC3)n2)c(F)c1 [Example 07.04.020.] | 388
CCc1cccc(-c2nc(-c3ccccc3)n(CC(=O)N3CCN(c4ncccn4)CC3)n2)c1 [Example 07.10.03.] | 15
COc1ccc(-c2nc(-c3ccc(F)cc3)n(CC(=O)N3CCN(c4ccccn4)CC3)n2)cc1 [Example 07.04.035.] | 40
COc1ccc(-c2nc(-c3ccccc3)n(CC(=O)N3CCN(c4ccc(C)cn4)CC3)n2)cc1OC [Example 07.02.21.] | 451
Cc1ccnc(N2CCN(C(=O)Cn3nc(-c4ccc(F)c(C)c4)nc3C3CCCC(C)C3)CC2)c1 (stereo not drawn) [Example 07.04.146.] | 1340
COc1ccc(-c2nc(-c3ccc(OC)cc3)n(CC(=O)N3CCN(c4cccc(OC)n4)CC3)n2)cc1 [Example 07.02.15.] | 675
COc1cc(N2CCN(C(=O)Cn3nc(-c4ccc(F)c(F)c4)nc3-c3ccccc3)CC2)ncn1 [Example 07.10.33.] | 359
CCN(CC)c1cc(N2CCN(C(=O)Cn3nc(-c4ccc(F)cc4)nc3-c3ccc(F)cc3)CC2)ncn1 [Example 07.08.15.] | 205

SMILES | EC50 [nM]
COc1ccc(-c2nc(C3CCCCC3)n(CC(=O)N3CCN(c4ccccn4)CC3)n2)cc1 [Example 07.02.25.] | 424
CCOc1ccc(-c2nc(-c3ccccc3)n(CC(=O)N3CCN(c4ncccn4)CC3)n2)cc1 [Example 07.10.13.] | 77
COc1cc(OC)cc(-c2nc(-c3ccccc3)n(CC(=O)N3CCN(c4ncccn4)CC3)n2)c1 [Example 07.10.09.] | 553
CN(CCO)CCOc1cc(N2CCN(C(=O)Cn3nc(-c4ccc(F)cc4)nc3-c3ccc(F)cc3)CC2)ncn1 [Example 07.09.25.] | 301
O=C(Cn1nc(-c2ccc(F)cc2)nc1-c1ccc(F)cc1)N1CCN(c2cc(N3CCCC3)ncn2)CC1 [Example 07.08.13.] | 343
CCc1nc(-c2ccc(OC(F)F)cc2)nn1CC(=O)N1CCN(c2ncccn2)CC1 [Example 7.04.163] | 850
O=C(Cn1nc(-c2ccc(F)cc2)nc1-c1ccc(F)cc1)N1CCN(c2cccc(F)c2)CC1 [Example 07.03.05.] | 469
COc1cccc(-c2nc(-c3ccc(F)cc3)nn2CC(=O)N2CCN(c3ccccn3)CC2)c1 [Example 07.04.050.] | 459
Cc1ccc(N2CCN(C(=O)Cn3nc(-c4ccc(F)cc4)nc3-c3ccc(F)cc3)CC2)nc1 [Example 07.02.06.] | 155
O=C(Cn1nc(-c2ccc(F)cc2)nc1-c1ccc(F)cc1)N1CCN(c2cc(OC[C@H]3CCCO3)ncn2)CC1 [Example 07.09.03.] | 58
CN(C)c1ccnc(N2CCN(C(=O)Cn3nc(-c4ccc(F)cc4)nc3-c3ccc(F)cc3)CC2)n1 [Example 07.03.16.] | 66
COc1ccc(-c2nc(-c3ccccc3)n(CC(=O)N3CCN(c4ccccn4)CC3)n2)cc1OC [Example 07.02.18.] | 227
CC(C)CCN(C)c1cc(N2CCN(C(=O)Cn3nc(-c4ccc(F)cc4)nc3-c3ccc(F)cc3)CC2)ncn1 [Example 07.08.08.] | 359
CC(=O)N1CCC(Oc2cc(N3CCN(C(=O)Cn4nc(-c5ccc(F)cc5)nc4-c4ccc(F)cc4)CC3)ncn2)CC1 [Example 07.09.08.] | 74
CCC(C)c1nc(-c2ccc(F)c(C)c2)nn1CC(=O)N1CCN(c2ccccn2)CC1 (stereo not drawn) [Example 07.04.102.] | 998
O=C(Cn1nc(-c2ccc(F)cc2)nc1-c1ccc(F)cc1)N1CCN(c2cc(Cl)ccn2)CC1 [Example 07.04.015.] | 364
CCOc1ccnc(N2CCN(C(=O)Cn3nc(-c4ccc(F)cc4)nc3-c3ccc(F)cc3)CC2)c1 [Example 07.05.01., 2-(3,5-Bis-(4-fluoro-phenyl)-(1,2,4)triazol-1-yl)-1-(4-(4-ethoxy-pyridin-2-yl)-piperazin-1-yl)-ethanone] | 50
COc1cc(N2CCN(C(=O)Cn3nc(-c4ccc(F)c(C)c4)nc3C3CCCC(C)C3)CC2)ncn1 (stereo not drawn) [Example 07.04.147.] | 713
COc1ccc(-c2nc(-c3ccc(OC)cc3)n(CC(=O)N3CCN(c4ccccn4)CC3)n2)cc1 [Example 07.02.10.] | 83
COc1ccc(-c2nc(-c3ccc(F)cc3)nn2CC(=O)N2CCN(c3ncc(Cl)cn3)CC2)cc1 [Example 07.04.045.] | 80
CCc1cc(N2CCN(C(=O)Cn3nc(-c4ccc(F)cc4)nc3-c3ccc(F)cc3)CC2)ncn1 [Example 07.03.26.] | 177
Cc1ccnc(N2CCN(C(=O)Cn3nc(-c4ccccc4)nc3-c3ccccc3)CC2)c1 [Example 07.02.28.] | 243
COc1cc(N2CCN(C(=O)Cn3nc(-c4cccc(C)c4)nc3-c3ccccc3)CC2)ncn1 [Example 07.10.35.] | 98
CCCc1nc(-c2ccc(OC(F)F)cc2)nn1CC(=O)N1CCN(c2ncccn2)CC1 [Example 7.04.168] | 249
Cc1cc(-c2nc(-c3ccccc3)n(CC(=O)N3CCN(c4ncccn4)CC3)n2)ccc1Br [Example 07.01.06.] | 13
COc1cccc(-c2nc(-c3ccc(F)cc3)n(CC(=O)N3CCN(c4cc(C)ccn4)CC3)n2)c1 [Example 07.04.027.] | 38
COc1cc(N2CCN(C(=O)Cn3nc(-c4ccc(F)c(C)c4)nc3C3CCCCC3C)CC2)ncn1 (stereo not drawn) [Example 07.04.137.] | 1050
